Literature values, collected in patent publication US9320791B2, “Peptides from chaperonin 60.1” (PE[…], priority 2011, dated 2016).

Tested on: recruitment of eosinophils
Conditions: animal model of allergic airway inflammation; disclosed in WO2009/106819

For “DGSVVVNKVSELPAGHGLNVNTLSYGDLAAD (listed as Mycobacterium tuberculosis) [Peptide 4, peptide derivable from MtCpn60.1 disclosed in WO2009/106819]”, the recruitment of eosinophils is listed as “significantly reduce”.
